Laboratory results as given in ChEMBL document CHEMBL5357016, “Discovery of Novel PDEδ Autophagic Degraders: A Case Study of Autophagy-Tethering Compound (ATTEC)” (ACS Med Chem Lett, 2024).
Activity calls are given as the source filed them. No cut-off for these calls is given here.

Experiments:
MIA PaCa-2 [1] = assay: Induction of apoptosis in human MIA PaCa-2 cells harboring KRAS mutant assessed as late apoptotic cells at 10 uM measured after 24 hrs by Annexin V-FITC/PI staining based flow cytometric analysis (Rvb= 10.56%); type: functional
MIA PaCa-2 [2] = assay: Antiproliferative activity against human MIA PaCa-2 cells harboring KRAS mutant assessed as reduction in cell proliferation incubated for 72 hrs by CCK-8 assay; conditions: MIA PaCa-2, 72 h
MIA PaCa-2 [3] = assay: Induction of apoptosis in human MIA PaCa-2 cells harboring KRAS mutant assessed as early apoptotic cells at 10 uM measured after 24 hrs by Annexin V-FITC/PI staining based flow cytometric analysis (Rvb= 4.62%); type: functional
MIA PaCa-2 [4] = assay: Induction of apoptosis in human MIA PaCa-2 cells harboring KRAS mutant assessed as necrotic cells at 10 uM measured after 24 hrs by Annexin V-FITC/PI staining based flow cytometric analysis (Rvb= 0.3%); type: functional
MIA PaCa-2 [5] = assay: Induction of apoptosis in human MIA PaCa-2 cells harboring KRAS mutant assessed as necrotic cells at 1 uM measured after 24 hrs by Annexin V-FITC/PI staining based flow cytometric analysis (Rvb= 0.3%); type: functional
CAPAN-1 = assay: Antiproliferative activity against human CAPAN-1 cells harboring KRAS mutant assessed as reduction in cell proliferation incubated for 72 hrs by CCK-8 assay; conditions: CAPAN-1, 72 h
MIA PaCa-2 [6] = assay: Effect on PDEdelta mRNA expression in human MIA PaCa-2 cells measured after 24 hrs by RT-qPCR analysis; type: functional, cell-based
MIA PaCa-2 [7] = assay: Induction of apoptosis in human MIA PaCa-2 cells harboring KRAS mutant assessed as late apoptotic cells at 1 uM measured after 24 hrs by Annexin V-FITC/PI staining based flow cytometric analysis (Rvb= 10.56%); type: functional
MIA PaCa-2 [8] = assay: Induction of apoptosis in human MIA PaCa-2 cells harboring KRAS mutant assessed as early apoptotic cells at 1 uM measured after 24 hrs by Annexin V-FITC/PI staining based flow cytometric analysis (Rvb= 4.62%); type: functional
[9] = Drug localization in lysosome of human HeLa cells assessed as green fluorescence pretreated with compound for 2 hrs followed by probe administration and measured after 1.5 hrs by fluorescence imaging analysis; type: ADME, subcellular; conditions: 3.5 h
[10] = Drug uptake in lysosome of human HeLa cells assessed as drug fusion by measuring red fluorescence pretreated with compound for 2 hrs followed by probe administration and measured after 1.5 hrs by fluorescence imaging analysis; type: ADME, subcellular; conditions: 3.5 h

| IC50 (MIA PaCa-2 [2]) | Drug uptake [9] | Drug uptake [10] | SMILES | Activity (MIA PaCa-2 [1]) | Activity (MIA PaCa-2 [3]) | Activity (MIA PaCa-2 [4]) | Activity (MIA PaCa-2 [5]) | IC50 (CAPAN-1) | Activity (MIA PaCa-2 [6]) | Activity (MIA PaCa-2 [7]) | Activity (MIA PaCa-2 [8]) |
| --- | --- | --- | --- | --- | --- | --- | --- | --- | --- | --- | --- |
| 1.4 µM | – | – | Cc1ccc(-n2nc3c(=O)n(CCCC(=O)NCCCCCCNC(=O)COc4c(Br)cc(/C=C5\C(=O)Nc6ccc(I)cc65)cc4Br)nc(C)c3c2C)cc1 | 23.49% | 9.76% | 11.64% | 0.43% | 800 nM | inactive | 18.43% | 3.8% |
| 25 µM | – | – | Cc1ccc(-n2nc3c(=O)n(CCCC(=O)NCCOCCOCCNC(=O)COc4c(Br)cc(/C=C5\C(=O)Nc6ccc(I)cc65)cc4Br)nc(C)c3c2C)cc1 | – | – | – | – | 3500 nM | – | – | – |
| – | Active | Active | O=C(COc1c(Br)cc(/C=C2\C(=O)Nc3ccc(I)cc32)cc1Br)NCCCOCCOCCOCCCNC(=S)Nc1ccc2c(c1)C(=O)OC21c2ccc(O)cc2Oc2cc(O)ccc21 | – | – | – | – | – | – | – | – |
